Test results as given in patent US20040175773A1, “Screening method based on siah-numb interaction” (priority 2000, published 2004).
Where a SMILES comes first, the peptide text is derived from it. The star is where a group is joined. Cbz = O=C(OCc1ccccc1)*

Tests used:
[1] = test system: Notch1 nuclear translocation in U937 cells; conditions: 10 mM EDTA in PBS at 37° C. for 30 min; labelled 30 min (T=30) after removing the EDTA
Protocol: A. Stable U937 transfectants which were expressing either the control vector (panels 1 to 3) or Siah-1 (panels 4 to 7) were analysed using a confocal microscope for the endogenous immunofluorescence of Notch1. The cells were labelled with an antibody which recognized the cytoplasmic portion of human Notch1, followed by an FITC-conjugated secondary antibody. The Notch immunofluorescence analysis is related either to low magnification (panels 1 and 4) or to high magnification (panels 2, 3, 5, 6 and 7). […] The labelling with propidium iodide was included in order to better visualize the nuclear labelling of Notch1 (panels 3, 6 and 7). […] The bar represents a length of 5 μm.
Cells were incubated in 10 mM EDTA containing PBS at 37° C. for 30 min, and then washed and labelled with anti-Notch1 (intracellular) antibodies either immediately (T=0) or 30 min (T=30) after removing the EDTA. The cells were counterlabelled with propidium iodide in order to visualize the nucleus.

[2] = test system: quantity of Numb protein in 293T cells; assay: Western blot of Numb protein in transfected 293T cells with or without proteasome inhibitor; format: cell-based, human; conditions: 293T cells cotransfected with Numb, Siah-1 +/- Mdm2; 50 μM MG132 for 6 hours; anti-Numb Western blot, FIG. 2B lanes 6, 7 and 8
Protocol: FIG. 2: Analysis of the effect of the in vivo interaction between Siah and Numb on the levels at which the proteins are expressed. FIG. 2.A. 293T cells were cotransfected with an empty expression vector (column 1) or expressing Numb (column 2), Siah-1 (column 3), Numb and Siah-1 (column 4), Numb and Mdm2 (column 5), and Numb, Siah-1 and Mdm2 (column 6). 48 hours after transfection, a Western blot analysis was carried out using an anti-Numb antibody. A control was also performed using an anti-GFP (green fluorescent protein) antibody as a loading standard on the gel. FIG. 2.B. The Western blot was analysed as previously described in the absence or presence of an inhibitor of the ubiquitin proteasome (MG 132). Without MG 132, the quantity of Numb protein decreases in the presence of Siah-1, with or without Mdm2 (lanes 2, 3 and 4). […]
The cell lysates were separated by SDS-PAGE gel electrophoresis and transferred to a nitrocellulose membrane (Biorad), with this being followed by a Western blot analysis using the Numb polyclonal antibody (Weizmann Institute, Ref. 3465, or reference N80220 from Transduction Laboratories) and the anti-GFP monoclonal antibody (Boehringer, Ref. 1814460) in order to verify standardization of the quantities which were loaded onto the gel. […]

Structure (SMILES): O=C(O)CN(CCN(CC(=O)O)CC(=O)O)CC(=O)O [EDTA]
- nuclear translocation of Notch1 [1]: positive Notch1 labelling in the nucleus

Structure (SMILES): CC(C)C[C@@H](C=O)NC(=O)[C@H](CC(C)C)NC(=O)[C@H](CC(C)C)NC(=O)OCc1ccccc1 [MG 132] (Cbz-Leu-Leu-Leu-aldehyde)
- quantity of Numb protein in the presence of Siah-1, with or without Mdm2 [2]: remains constant
